pEC50: −log10 of the molar value.
Biological target: T1, F508del (Homo sapiens, UniProt P13569, DEL508-508)
T1 construct: expressed in transfected cells
Test: Membrane potential optical assay (FRET voltage-sensor dyes), identification of correction compounds
Assay type: cell-based
Settings: NIH3T3 cells stably expressing F508del, procedures described above; for Emax: maximum efficacy, read-out: Max Efficacy; for pEC50: modulation of CFTR activity
Method: (§1) NIH3T3 mouse fibroblasts stably expressing F508del are used for optical measurements of membrane potential. The cells are maintained at 37° C. in 5% CO2 and 90% humidity in Dulbecco's modified Eagle's medium supplemented with 2 mM glutamine, 10% fetal bovine serum, 1×NEAA, β-ME, 1× pen/strep, and 25 mM HEPES in 175 cm^2 culture flasks. For all optical assays, the cells were seeded at 12,000 cells/well in 384-well matrigel-coated plates and cultured for 18-24 hrs at 37° C. for the potentiator assay. For the correction assays, the cells are cultured at 37° C. with and without compounds for 18-24 hours.
Membrane potential optical methods for assaying F508del modulation properties of compounds.
The optical membrane potential assay utilized voltage-sensitive FRET sensors described by Gonzalez and Tsien (See Gonzalez, J. E. and R. Y. Tsien (1995) “Voltage sensing by fluorescence resonance energy transfer in single cells” Biophys J 69(4): 1272-80, and Gonzalez, J. E. and R. Y. Tsien (1997) “Improved indicators of cell membrane potential that use fluorescence resonance energy transfer” Chem Biol 4(4): 269-77) in combination with instrumentation for measuring fluorescence changes such as the Voltage/Ion Probe Reader (VIPR) (See, Gonzalez, J. E., K. Oades, et al. (1999) “Cell-based assays and instrumentation for screening ion-channel targets” Drug Discov Today 4(9): 431-439).
These voltage sensitive assays are based on the change in fluorescence resonant energy transfer (FRET) between the membrane-soluble, voltage-sensitive dye, DiSBAC2(3), and a fluorescent phospholipid, CC2-DMPE, which is attached to the outer leaflet of the plasma membrane and acts as a FRET donor. Changes in membrane potential (Vm) cause the negatively charged DiSBAC2(3) to redistribute across the plasma membrane and the amount of energy transfer from CC2-DMPE changes accordingly. The changes in fluorescence emission were monitored using VIPR™ II, which is an integrated liquid handler and fluorescent detector designed to conduct cell-based screens in 96- or 384-well microtiter plates.
To identify small molecules that correct the trafficking defect associated with F508del; a single-addition HTS assay format was developed. The cells were incubated in serum-free medium for 16 hrs at 37° C. in the presence or absence (negative control) of test compound. As a positive control, cells plated in 384-well plates were incubated for 16 hrs at 27° C. to “temperature-correct” F508del. The cells were subsequently rinsed 3× with Krebs Ringers solution and loaded with the voltage-sensitive dyes. To activate F508del, 10 μM forskolin and the CFTR potentiator, genistein (20 μM), were added along with Cl^−-free medium to each well. The addition of Cl^−-free medium promoted Cl^− efflux in response to F508del activation and the resulting membrane depolarization was optically monitored using the FRET-based voltage-sensor dyes.
• Bath Solution #1: (in mM) NaCl 160, KCl 4.5, CaCl2 2, MgCl2 1, HEPES 10, pH 7.4 with NaOH. • Chloride-free bath solution: Chloride salts in Bath Solution #1 (above) are substituted with gluconate salts. • CC2-DMPE: Prepared as a 10 mM stock solution in DMSO and stored at −20° C. • DiSBAC2(3): Prepared as a 10 mM stock in DMSO and stored at −20° C. Cell Culture
as §1, with “seeded at 30,000/well in 384-well” for “seeded at 12,000 cells/well in 384-well”, “cultured for 2 hrs at” for “cultured for 18-24 hrs at”, “37° C. before culturing at 27° C. for 24 hrs for the” for “37° C. for the”, “cultured at 27° C. or 37° C.” for “cultured at 37° C.”, “compounds for 16-24 hours.” for “compounds for 18-24 hours.”

T1 sequence (P13569 with tags, fused parts or gaps DEL508-508): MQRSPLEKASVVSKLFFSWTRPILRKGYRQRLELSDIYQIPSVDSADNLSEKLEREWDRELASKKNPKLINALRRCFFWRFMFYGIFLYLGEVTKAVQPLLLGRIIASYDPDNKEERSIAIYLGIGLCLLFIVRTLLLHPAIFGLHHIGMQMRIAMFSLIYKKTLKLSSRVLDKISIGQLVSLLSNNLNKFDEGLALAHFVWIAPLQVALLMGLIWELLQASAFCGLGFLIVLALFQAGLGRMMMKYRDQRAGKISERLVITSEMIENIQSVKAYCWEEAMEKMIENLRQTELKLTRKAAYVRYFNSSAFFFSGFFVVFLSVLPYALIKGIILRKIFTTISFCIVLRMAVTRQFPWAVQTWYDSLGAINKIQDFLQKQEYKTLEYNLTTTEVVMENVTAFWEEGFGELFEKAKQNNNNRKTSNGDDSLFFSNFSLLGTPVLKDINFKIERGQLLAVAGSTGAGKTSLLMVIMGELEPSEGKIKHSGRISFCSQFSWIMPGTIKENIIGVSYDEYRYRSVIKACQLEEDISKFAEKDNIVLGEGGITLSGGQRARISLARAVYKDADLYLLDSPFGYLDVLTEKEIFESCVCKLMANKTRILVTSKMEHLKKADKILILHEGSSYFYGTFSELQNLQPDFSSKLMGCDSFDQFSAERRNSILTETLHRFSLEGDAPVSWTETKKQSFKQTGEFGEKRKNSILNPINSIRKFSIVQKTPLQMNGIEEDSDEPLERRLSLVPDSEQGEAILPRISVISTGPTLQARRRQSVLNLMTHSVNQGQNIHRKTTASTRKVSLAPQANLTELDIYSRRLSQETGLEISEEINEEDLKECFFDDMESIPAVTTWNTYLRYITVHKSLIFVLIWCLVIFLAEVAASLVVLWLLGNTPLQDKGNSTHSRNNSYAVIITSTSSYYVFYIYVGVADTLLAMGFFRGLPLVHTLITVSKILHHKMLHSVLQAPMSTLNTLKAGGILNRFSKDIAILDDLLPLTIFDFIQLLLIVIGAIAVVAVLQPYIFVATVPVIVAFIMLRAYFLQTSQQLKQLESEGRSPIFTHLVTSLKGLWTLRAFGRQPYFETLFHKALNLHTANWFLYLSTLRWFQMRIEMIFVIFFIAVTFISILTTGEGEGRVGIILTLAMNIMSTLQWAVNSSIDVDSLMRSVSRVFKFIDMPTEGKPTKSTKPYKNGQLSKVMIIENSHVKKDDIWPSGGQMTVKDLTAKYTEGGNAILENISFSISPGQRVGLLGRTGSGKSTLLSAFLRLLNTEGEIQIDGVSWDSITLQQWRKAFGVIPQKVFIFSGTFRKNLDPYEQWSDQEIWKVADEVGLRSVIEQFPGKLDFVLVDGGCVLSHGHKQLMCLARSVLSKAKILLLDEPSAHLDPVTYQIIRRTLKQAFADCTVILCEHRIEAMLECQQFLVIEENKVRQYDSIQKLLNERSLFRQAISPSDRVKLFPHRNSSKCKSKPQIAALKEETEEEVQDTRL

Row | Compound | Emax [%] | pEC50
1 | CC(C)COc1cc(F)cc(-c2ccc(C(=O)NS(=O)(=O)c3cccc(N)n3)c(OC(C)CC(C)C)n2)c1 (stereo not drawn) [Compound 24, N-[(6-amino-2-pyridyl)sulfonyl]-2-(1,3-dimethylbutoxy)-6-(3-fluoro-5-isobutoxy-phenyl)pyridine-3-carboxamide] | > 80 | > 5.52
2 | CC(C)COc1cc(F)cc(-c2ccc(C(=O)NS(=O)(=O)c3cccc(N)n3)c(OCC(F)(F)F)n2)c1 [Compound 48, N-[(6-amino-2-pyridyl)sulfonyl]-6-(3-fluoro-5-isobutoxy-phenyl)-2-(2,2,2-trifluoroethoxy)pyridine-3-carboxamide] | 30 to 80 | 5.00 to 5.52
3 | CC(C)COc1cc(F)cc(-c2ccc(C(=O)NS(=O)(=O)c3cccc(N)n3)c(N(C(C)C)C(C)C)n2)c1 [Compound 41, N-[(6-amino-2-pyridyl)sulfonyl]-2-(diisopropylamino)-6-(3-fluoro-5-isobutoxy-phenyl)pyridine-3-carboxamide] | > 80 | > 5.52
4 | CCOCCOc1nc(-c2cc(F)cc(OCC(C)C)c2)ccc1C(=O)NS(=O)(=O)c1cccc(N)n1 [Compound 13, N-[(6-amino-2-pyridyl)sulfonyl]-2-(2-ethoxyethoxy)-6-(3-fluoro-5-isobutoxy-phenyl)pyridine-3-carboxamide] | 30 to 80 | > 5.52
5 | CC(C)COc1cc(F)cc(-c2ccc(C(=O)NS(=O)(=O)c3cccc(N)n3)c(OCCC(F)(F)F)n2)c1 [Compound 81, N-[(6-amino-2-pyridyl)sulfonyl]-6-(3-fluoro-5-isobutoxy-phenyl)-2-(3,3,3-trifluoropropoxy)pyridine-3-carboxamide] | 30 to 80 | > 5.52
6 | CC(C)COc1cc(F)cc(-c2ccc(C(=O)NS(=O)(=O)c3cccc(N)n3)c(OC(C)C(C)(C)C)n2)c1 (stereo not drawn) [Compound 25, N-[(6-amino-2-pyridyl)sulfonyl]-6-(3-fluoro-5-isobutoxy-phenyl)-2-(1,2,2-trimethylpropoxy)pyridine-3-carboxamide] | 30 to 80 | > 5.52
7 | CCC(C)(C)Oc1nc(-c2cc(F)cc(OCC(C)C)c2)ccc1C(=O)NS(=O)(=O)c1cccc(N)n1 [Compound 44, N-[(6-amino-2-pyridyl)sulfonyl]-2-(1,1-dimethylpropoxy)-6-(3-fluoro-5-isobutoxy-phenyl)pyridine-3-carboxamide] | > 80 | > 5.52
8 | CC(C)COc1cc(F)cc(-c2ccc(C(=O)NS(=O)(=O)c3cccc(N)n3)c(OCC(F)F)n2)c1 [Compound 38, N-[(6-amino-2-pyridyl)sulfonyl]-2-(2,2-difluoroethoxy)-6-(3-fluoro-5-isobutoxy-phenyl)pyridine-3-carboxamide] | 30 to 80 | 5.00 to 5.52
9 | CC(C)COc1cc(F)cc(-c2ccc(C(=O)NS(=O)(=O)c3ccn[nH]3)c(NCCC(C)(C)C)n2)c1 [Compound 50, 2-(3,3-dimethylbutylamino)-6-(3-fluoro-5-isobutoxy-phenyl)-N-(1H-pyrazol-5-ylsulfonyl)pyridine-3-carboxamide] | 30 to 80 | 5.00 to 5.52
10 | CC(C)COc1cc(F)cc(-c2ccc(C(=O)NS(=O)(=O)c3cccc(N)n3)c(OCCCC(F)(F)F)n2)c1 [Compound 82, N-[(6-amino-2-pyridyl)sulfonyl]-6-(3-fluoro-5-isobutoxy-phenyl)-2-(4,4,4-trifluorobutoxy)pyridine-3-carboxamide] | 30 to 80 | > 5.52
11 | CC(C)COc1cc(F)cc(-c2ccc(C(=O)NS(=O)(=O)c3cccc(N)n3)c(OC(C)C)n2)c1 [Compound 5, N-[(6-amino-2-pyridyl)sulfonyl]-6-(3-fluoro-5-isobutoxy-phenyl)-2-isopropoxy-pyridine-3-carboxamide] | > 80 | > 5.52
12 | COCCCOc1nc(-c2cc(F)cc(OCC(C)C)c2)ccc1C(=O)NS(=O)(=O)c1cccc(N)n1 [Compound 21, N-[(6-amino-2-pyridyl)sulfonyl]-6-(3-fluoro-5-isobutoxy-phenyl)-2-(3-methoxypropoxy)pyridine-3-carboxamide] | 30 to 80 | > 5.52
13 | CCCNc1cccc(S(=O)(=O)NC(=O)c2ccc(-c3cc(F)cc(OCC(C)C)c3)nc2NCCC)n1 [Compound 39, 6-(3-fluoro-5-isobutoxy-phenyl)-2-(propylamino)-N-[[6-(propylamino)-2-pyridyl]sulfonyl]pyridine-3-carboxamide] | 30 to 80 | > 5.52
14 | CC(C)COc1cc(F)cc(-c2ccc(C(=O)NS(=O)(=O)c3cccc(N)n3)c(N(C)[C@@H](C)C(F)(F)F)n2)c1 [Compound 17, N-[(6-amino-2-pyridyl)sulfonyl]-6-(3-fluoro-5-isobutoxy-phenyl)-2-[methyl-[(1 S)-2,2,2-trifluoro-1-methyl-ethyl]amino]pyridine-3-carboxamide] | > 80 | > 5.52
15 | CC(C)COc1cc(F)cc(-c2ccc(C(=O)NS(=O)(=O)c3cccc(N)n3)c(N(C)CC(F)F)n2)c1 [Compound 1, N-[(6-amino-2-pyridyl)sulfonyl]-2-[2,2-difluoroethyl(methyl)amino]-6-(3-fluoro-5-isobutoxy-phenyl)pyridine-3-carboxamide] | > 80 | > 5.52
16 | CC(C)COc1cc(F)cc(-c2ccc(C(=O)NS(=O)(=O)c3cccc(N)n3)c(NCCC(C)(C)O)n2)c1 [Compound 80, N-[(6-amino-2-pyridyl)sulfonyl]-6-(3-fluoro-5-isobutoxy-phenyl)-2-[(3-hydroxy-3-methyl-butyl)amino]pyridine-3-carboxamide] | 30 to 80 | < 5.00
17 | CCN(C)c1nc(-c2cc(F)cc(OCC(C)C)c2)ccc1C(=O)NS(=O)(=O)c1cccc(N)n1 [Compound 67, N-[(6-amino-2-pyridyl)sulfonyl]-2-[ethyl(methyl)amino]-6-(3-fluoro-5-isobutoxy-phenyl)pyridine-3-carboxamide] | > 80 | > 5.52
18 | CC(C)COc1cc(F)cc(-c2ccc(C(=O)NS(=O)(=O)c3cccc(N)n3)c(OCC(C)(F)F)n2)c1 [Compound 57, N-[(6-amino-2-pyridyl)sulfonyl]-2-(2,2-difluoropropoxy)-6-(3-fluoro-5-isobutoxy-phenyl)pyridine-3-carboxamide] | 30 to 80 | > 5.52
19 | CC(C)COc1cc(F)cc(-c2ccc(C(=O)NS(=O)(=O)c3cccc(N)n3)c(OC(C(F)(F)F)C(F)(F)F)n2)c1 [Compound 33, N-[(6-amino-2-pyridyl)sulfonyl]-6-(3-fluoro-5-isobutoxy-phenyl)-2-[2,2,2-trifluoro-1-(trifluoromethyl)ethoxy]pyridine-3-carboxamide] | 30 to 80 | > 5.52
20 | CCC(C)(C)CCOc1nc(-c2cc(F)cc(OCC(C)C)c2)ccc1C(=O)NS(=O)(=O)c1cccc(N)n1 [Compound 77, N-[(6-amino-2-pyridyl)sulfonyl]-2-(3,3-dimethylpentoxy)-6-(3-fluoro-5-isobutoxy-phenyl)pyridine-3-carboxamide] | 30 to 80 | > 5.52
21 | CCCC(C)C(C)Oc1nc(-c2cc(F)cc(OCC(C)C)c2)ccc1C(=O)NS(=O)(=O)c1cccc(N)n1 (stereo not drawn) [Compound 62, N-[(6-amino-2-pyridyl)sulfonyl]-2-(1,2-dimethylpentoxy)-6-(3-fluoro-5-isobutoxy-phenyl)pyridine-3-carboxamide] | 30 to 80 | > 5.52

From patent publication US10738030B2, “Modulators of cystic fibrosis transmembrane conductance regulator” (Vertex Pharmaceuticals Incorporated, priority 2016, dated 2020)
